# Laboratory results: patent US8519061B2, “Controlled release remediation system and composition” (North Carolina A&T State University, priority 2008, dated 2013)
# Tested on: E. coli
# Assay: E. coli colony counts, Membrane Filter Count Method, Country Park Lake water
# Assay type: cell-based, Escherichia coli
# Description: These pellets were used to evaluate the removal of Escherichia coli (commonly E. coli) from publicly accessible water. […] Recreational use of the publicly accessible water in this area is restricted due to high E. coli concentrations that can lead to illness.
# Water samples including control water samples and publicly accessible water samples (from Country Park Lake) at concentrations of 1 ml, 0.1 ml, 0.01 ml, and 0.001 ml were prepared for evaluation.
# The water samples were filtered through 5 μm filters and bacteria was cultured in petri dishes with m-Endo broth (e.g., commercially available form BD Diagnostic Systems Sparks, Md.) for 24-hours at 35° C. If E. coli was present in the filtered water sample, metallic purple/red E. coli colonies would grow on the filter in the petri dish. For this analysis, the larger the water sample filtered, the higher the concentration of E. coli which would grow within the 24-hour window. To analyze the amount of E. coli on the filter, the goal was to determine the appropriate water dilution amount to obtain filters where the number of colonies could be counted. If the filter was covered with E. coli, the petri dish was classified as “To numerous to count”. When an acceptable number of countable colonies was obtained, the number of colonies/100 ml was calculated for the water sample.
smiles,measurement,value
"O=S(=O)([O-])OO.[K+] [Oxone ® compound, potassium hydrogen peroxymonosulfate sulfate (5:3:2:2)]","E. coli Colony Counts, 0.1 ml dilution plates",No colonies
same,"E. coli Colony Counts, 1 ml dilution plates",No colonies
same,"E. coli Colony Counts, Average 24 hours # colonies/100 ml",No colonies
same,Removal of E. coli from treated water,complete removal
